Measurements published in PubChem BioAssay (NCI).
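Where inhibition never reached the appropriate level, the endpoint shown equals the highest concentration tested. Otherwise, values were interpolated linearly from a five-concentration, 48-hour dose response in 96-well plates. TGI: concentration producing complete growth inhibition.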

How the values were obtained:
Experiment in all cases: DTP human tumour cell line panel, 48 h
786-0 renal = test system: 786-0 renal
A549 NSCLC = test system: A549 NSCLC
ACHN renal = test system: ACHN renal
CAKI-1 renal = test system: CAKI-1 renal
CCRF-CEM leukemia = test system: CCRF-CEM leukemia
COLO 205 colon = test system: COLO 205 colon
DU-145 prostate = test system: DU-145 prostate
EKVX NSCLC = test system: EKVX NSCLC
HCC-2998 colon = test system: HCC-2998 colon
HCT-116 colon = test system: HCT-116 colon
HCT-15 colon = test system: HCT-15 colon
HL-60(TB) leukemia = test system: HL-60(TB) leukemia
HOP-62 NSCLC = test system: HOP-62 NSCLC
HOP-92 NSCLC = test system: HOP-92 NSCLC
HS 578T breast = test system: HS 578T breast
HT29 colon = test system: HT29 colon
IGROV1 ovarian = test system: IGROV1 ovarian
K-562 leukemia = test system: K-562 leukemia
KM12 colon = test system: KM12 colon
LOX IMVI melanoma = test system: LOX IMVI melanoma
M14 melanoma = test system: M14 melanoma
MCF7 breast = test system: MCF7 breast
MDA-MB-231 breast = test system: MDA-MB-231 breast
MDA-MB-435 = test system: MDA-MB-435
MDA-N = test system: MDA-N
MOLT-4 leukemia = test system: MOLT-4 leukemia
NCI-H226 lung = test system: NCI-H226 lung
NCI-H23 lung = test system: NCI-H23 lung
NCI-H460 lung = test system: NCI-H460 lung
NCI-H522 lung = test system: NCI-H522 lung
NCI/ADR-RES ovarian = test system: NCI/ADR-RES ovarian
OVCAR-3 ovarian = test system: OVCAR-3 ovarian
OVCAR-4 ovarian = test system: OVCAR-4 ovarian
OVCAR-5 ovarian = test system: OVCAR-5 ovarian
OVCAR-8 ovarian = test system: OVCAR-8 ovarian
PC-3 prostate = test system: PC-3 prostate
RPMI-8226 leukemia = test system: RPMI-8226 leukemia
RXF 393 renal = test system: RXF 393 renal
SF-268 CNS = test system: SF-268 CNS
SF-295 CNS = test system: SF-295 CNS
SF-539 CNS = test system: SF-539 CNS
SK-MEL-2 melanoma = test system: SK-MEL-2 melanoma
SK-MEL-28 melanoma = test system: SK-MEL-28 melanoma
SK-MEL-5 melanoma = test system: SK-MEL-5 melanoma
SK-OV-3 ovarian = test system: SK-OV-3 ovarian
SN12C renal = test system: SN12C renal
SNB-19 CNS = test system: SNB-19 CNS
SNB-75 CNS = test system: SNB-75 CNS
SR leukemia = test system: SR leukemia
SW-620 colon = test system: SW-620 colon
T-47D breast = test system: T-47D breast
TK-10 renal = test system: TK-10 renal
U251 CNS = test system: U251 CNS
UACC-257 melanoma = test system: UACC-257 melanoma
UACC-62 melanoma = test system: UACC-62 melanoma
UO-31 renal = test system: UO-31 renal
A498 renal = test system: A498 renal

Structure (SMILES): Cc1ccc(S(=O)(=O)NC2C(=O)c3ccccc3C(=O)C2n2ccnc2)cc1 (centres undefined)
- TGI (786-0 renal): 32.8 µM
- TGI (A549 NSCLC): > 100 µM
- TGI (ACHN renal): > 100 µM
- TGI (CAKI-1 renal): > 100 µM
- TGI (CCRF-CEM leukemia): 52.9 µM
- TGI (COLO 205 colon): > 100 µM
- TGI (DU-145 prostate): 30.7 µM
- TGI (EKVX NSCLC): > 100 µM
- TGI (HCC-2998 colon): > 100 µM
- TGI (HCT-116 colon): 53.1 µM
- TGI (HCT-15 colon): > 100 µM
- TGI (HL-60(TB) leukemia): 46.4 µM
- TGI (HOP-62 NSCLC): > 100 µM
- TGI (HOP-92 NSCLC): > 100 µM
- TGI (HS 578T breast): > 100 µM
- TGI (HT29 colon): > 100 µM
- TGI (IGROV1 ovarian): > 100 µM
- TGI (K-562 leukemia): > 100 µM
- TGI (KM12 colon): > 100 µM
- TGI (LOX IMVI melanoma): 25 µM
- TGI (M14 melanoma): > 100 µM
- TGI (MCF7 breast): > 100 µM
- TGI (MDA-MB-231 breast): 29.5 µM
- TGI (MDA-MB-435): 33 µM
- TGI (MDA-N): 29 µM
- TGI (MOLT-4 leukemia): 80.8 µM
- TGI (NCI-H226 lung): > 100 µM
- TGI (NCI-H23 lung): > 100 µM
- TGI (NCI-H460 lung): > 100 µM
- TGI (NCI-H522 lung): 5.77 µM
- TGI (NCI/ADR-RES ovarian): > 100 µM
- TGI (OVCAR-3 ovarian): > 100 µM
- TGI (OVCAR-4 ovarian): > 100 µM
- TGI (OVCAR-5 ovarian): > 100 µM
- TGI (OVCAR-8 ovarian): > 100 µM
- TGI (PC-3 prostate): > 100 µM
- TGI (RPMI-8226 leukemia): > 100 µM
- TGI (RXF 393 renal): > 100 µM
- TGI (SF-268 CNS): > 100 µM
- TGI (SF-295 CNS): > 100 µM
- TGI (SF-539 CNS): > 100 µM
- TGI (SK-MEL-2 melanoma): > 100 µM
- TGI (SK-MEL-28 melanoma): > 100 µM
- TGI (SK-MEL-5 melanoma): > 100 µM
- TGI (SK-OV-3 ovarian): > 100 µM
- TGI (SN12C renal): 28.3 µM
- TGI (SNB-19 CNS): > 100 µM
- TGI (SNB-75 CNS): > 100 µM
- TGI (SR leukemia): > 100 µM
- TGI (SW-620 colon): > 100 µM
- TGI (T-47D breast): 38.8 µM
- TGI (TK-10 renal): > 100 µM
- TGI (U251 CNS): > 100 µM
- TGI (UACC-257 melanoma): > 100 µM
- TGI (UACC-62 melanoma): > 100 µM
- TGI (UO-31 renal): > 100 µM

Structure (SMILES): CCCCCCCCCCCC1=NCCN1
- TGI (A498 renal): 43.2 µM
- TGI (A549 NSCLC): > 100 µM
- TGI (ACHN renal): > 100 µM
- TGI (CCRF-CEM leukemia): 75.4 µM
- TGI (COLO 205 colon): 35.4 µM
- TGI (DU-145 prostate): > 100 µM
- TGI (HCC-2998 colon): 39 µM
- TGI (HCT-116 colon): > 100 µM
- TGI (HCT-15 colon): 32.7 µM
- TGI (HOP-92 NSCLC): > 100 µM
- TGI (HS 578T breast): > 100 µM
- TGI (HT29 colon): > 100 µM
- TGI (K-562 leukemia): > 100 µM
- TGI (KM12 colon): > 100 µM
- TGI (LOX IMVI melanoma): 22.9 µM
- TGI (M14 melanoma): > 100 µM
- TGI (MCF7 breast): > 100 µM
- TGI (MDA-MB-231 breast): 68.9 µM
- TGI (MDA-MB-435): > 100 µM
- TGI (MDA-N): > 100 µM
- TGI (MOLT-4 leukemia): 60.5 µM
- TGI (NCI-H226 lung): > 100 µM
- TGI (NCI-H23 lung): > 100 µM
- TGI (NCI-H460 lung): > 100 µM
- TGI (NCI-H522 lung): 67.5 µM
- TGI (NCI/ADR-RES ovarian): > 100 µM
- TGI (OVCAR-3 ovarian): > 100 µM
- TGI (OVCAR-4 ovarian): 38.7 µM
- TGI (OVCAR-8 ovarian): > 100 µM
- TGI (PC-3 prostate): 44.1 µM
- TGI (RXF 393 renal): > 100 µM
- TGI (SF-268 CNS): > 100 µM
- TGI (SF-295 CNS): > 100 µM
- TGI (SK-MEL-28 melanoma): > 100 µM
- TGI (SK-MEL-5 melanoma): > 100 µM
- TGI (SK-OV-3 ovarian): > 100 µM
- TGI (SN12C renal): > 100 µM
- TGI (SNB-19 CNS): > 100 µM
- TGI (SNB-75 CNS): 92.3 µM
- TGI (SR leukemia): 48 µM
- TGI (SW-620 colon): > 100 µM
- TGI (T-47D breast): > 100 µM
- TGI (TK-10 renal): > 100 µM
- TGI (U251 CNS): > 100 µM
- TGI (UACC-257 melanoma): > 100 µM
- TGI (UO-31 renal): 95.1 µM

Structure (SMILES): CC1=NN(c2cccc(Cl)c2)C2(SCC(=O)N2c2nc3ccccc3s2)/C1=C\c1ccccc1 (centres undefined)
- TGI (786-0 renal): 31 µM
- TGI (A498 renal): 51.8 µM
- TGI (ACHN renal): 48.4 µM
- TGI (CAKI-1 renal): 53 µM
- TGI (CCRF-CEM leukemia): > 100 µM
- TGI (DU-145 prostate): 45.3 µM
- TGI (EKVX NSCLC): > 100 µM
- TGI (HCC-2998 colon): 29.3 µM
- TGI (HCT-116 colon): 29.4 µM
- TGI (HCT-15 colon): 37.4 µM
- TGI (HL-60(TB) leukemia): 67.7 µM
- TGI (HOP-62 NSCLC): 56.7 µM
- TGI (HOP-92 NSCLC): 25.6 µM
- TGI (HS 578T breast): 55.4 µM
- TGI (HT29 colon): 44.8 µM
- TGI (IGROV1 ovarian): 58.7 µM
- TGI (K-562 leukemia): 54.4 µM
- TGI (KM12 colon): 32.2 µM
- TGI (LOX IMVI melanoma): 66.6 µM
- TGI (M14 melanoma): 70.1 µM
- TGI (MCF7 breast): 84.3 µM
- TGI (MDA-MB-231 breast): 55.5 µM
- TGI (MDA-MB-435): 38.9 µM
- TGI (MDA-N): 42.3 µM
- TGI (MOLT-4 leukemia): 60.2 µM
- TGI (NCI-H226 lung): 97.4 µM
- TGI (NCI-H23 lung): 51.9 µM
- TGI (NCI-H460 lung): 32.4 µM
- TGI (NCI-H522 lung): 34.6 µM
- TGI (NCI/ADR-RES ovarian): 83.3 µM
- TGI (OVCAR-3 ovarian): > 100 µM
- TGI (OVCAR-4 ovarian): 62.7 µM
- TGI (OVCAR-5 ovarian): 58.8 µM
- TGI (OVCAR-8 ovarian): 45.7 µM
- TGI (PC-3 prostate): 64.2 µM
- TGI (RPMI-8226 leukemia): 46.8 µM
- TGI (RXF 393 renal): 40.6 µM
- TGI (SF-268 CNS): 54.4 µM
- TGI (SF-295 CNS): 81.2 µM
- TGI (SF-539 CNS): > 100 µM
- TGI (SK-MEL-2 melanoma): 46.7 µM
- TGI (SK-MEL-28 melanoma): > 100 µM
- TGI (SK-MEL-5 melanoma): 30.3 µM
- TGI (SK-OV-3 ovarian): 55.1 µM
- TGI (SNB-75 CNS): > 100 µM
- TGI (SR leukemia): 63.3 µM
- TGI (SW-620 colon): 37.3 µM
- TGI (T-47D breast): > 100 µM
- TGI (TK-10 renal): > 100 µM
- TGI (U251 CNS): 44.3 µM
- TGI (UACC-257 melanoma): 85.2 µM
- TGI (UO-31 renal): 63.6 µM
